Measured values from ChEMBL document CHEMBL3885861, “Open TG-GATES”.

Species on record: Rattus norvegicus
Experiment: Open TG-GATES - Regimen: Single
Type: toxicity, organism-based, Sprague-Dawley
Set-up: regimen Single, gender Male, age 6 weeks
Conditions: in vivo, po, 30 mg/kg, route gavage, dose level High; for APTT / Bas / Eos / Fbg / Hb / Ht / Lym / MCH / MCHC / MCV / Mono / Neu / PT / Plat / RBC / Ret / WBC: tissue Blood; for KIDNEY_L / KIDNEY_R / KIDNEY_TOTAL: tissue Kidney; for LIVER: tissue Liver; for A/G / ALP / ALT / AST / BUN / CRE / Ca / Cl / DBIL / GLC / IP / K / LDH / Na / PL / RALB / TBIL / TC / TG / TP / gamma-GTP: tissue Plasma

Cn1cnc([N+](=O)[O-])c1Sc1ncnc2nc[nH]c12 [AZATHIOPRINE]
TERMINAL_BW (3 h): 191.2 g | APTT (3 h): 22.3 s | Bas (3 h): 0% | Eos (3 h): 1% | Fbg (3 h): 297.8 mg/dL | Hb (3 h): 13.1 g/dL | Ht (3 h): 39.1% | Lym (3 h): 71.8% | MCH (3 h): 21.6 pg | MCHC (3 h): 33.5% | MCV (3 h): 64.6 fL | Mono (3 h): 1.8% | Neu (3 h): 24.6% | PT (3 h): 15.5 s | Plat (3 h): 118.4 x10_4/uL | RBC (3 h): 605.8 x10_4/ul | Ret (3 h): 9.2% | WBC (3 h): 56 x10_2/uL | KIDNEY_L (3 h): 0.9 g | KIDNEY_R (3 h): 0.9 g | KIDNEY_TOTAL (3 h): 1.7 g | LIVER (3 h): 8.5 g | A/G (3 h): 1.2 | ALP (3 h): 1649.8 IU/L | ALT (3 h): 41.6 IU/L | AST (3 h): 73.2 IU/L | BUN (3 h): 10.6 mg/dL | CRE (3 h): 0.1 mg/dL | Ca (3 h): 10.3 mg/dL | Cl (3 h): 104.8 meq/L | DBIL (3 h): 0.004 mg/dL | GLC (3 h): 182.8 mg/dL | IP (3 h): 9 mg/dL | K (3 h): 4 meq/L | LDH (3 h): 171.8 IU/L | Na (3 h): 143.2 meq/L | PL (3 h): 138.4 mg/dL | RALB (3 h): 3 g/dL | TBIL (3 h): 0.01 mg/dL | TC (3 h): 80.4 mg/dL | TG (3 h): 47.6 mg/dL | TP (3 h): 5.4 g/dL | gamma-GTP (3 h): 1 IU/L | TERMINAL_BW (6 h): 192.3 g | APTT (6 h): 21 s | Bas (6 h): 0% | Eos (6 h): 0.8% | Fbg (6 h): 311.8 mg/dL | Hb (6 h): 13.2 g/dL | Ht (6 h): 39.6% | Lym (6 h): 71.4% | MCH (6 h): 21.5 pg | MCHC (6 h): 33.3% | MCV (6 h): 64.8 fL | Mono (6 h): 2.2% | Neu (6 h): 25% | PT (6 h): 15.5 s | Plat (6 h): 120.3 x10_4/uL | RBC (6 h): 612.2 x10_4/ul | Ret (6 h): 9% | WBC (6 h): 54.6 x10_2/uL | KIDNEY_L (6 h): 0.9 g | KIDNEY_R (6 h): 0.9 g | KIDNEY_TOTAL (6 h): 1.8 g | LIVER (6 h): 7.9 g | A/G (6 h): 1.1 | ALP (6 h): 1635.4 IU/L | ALT (6 h): 36.4 IU/L | AST (6 h): 69.8 IU/L | BUN (6 h): 9.8 mg/dL | CRE (6 h): 0.2 mg/dL | Ca (6 h): 10.6 mg/dL | Cl (6 h): 104.8 meq/L | DBIL (6 h): 0.002 mg/dL | GLC (6 h): 187.4 mg/dL | IP (6 h): 9.1 mg/dL | K (6 h): 4.4 meq/L | LDH (6 h): 221 IU/L | Na (6 h): 141.2 meq/L | PL (6 h): 127.2 mg/dL | RALB (6 h): 2.9 g/dL | TBIL (6 h): 0.008 mg/dL | TC (6 h): 73.4 mg/dL | TG (6 h): 44.6 mg/dL | TP (6 h): 5.5 g/dL | gamma-GTP (6 h): 1 IU/L | TERMINAL_BW (9 h): 184.1 g | APTT (9 h): 22 s | Bas (9 h): 0% | Eos (9 h): 0.8% | Fbg (9 h): 328.4 mg/dL | Hb (9 h): 12.7 g/dL | Ht (9 h): 38.7% | Lym (9 h): 74.4% | MCH (9 h): 21.3 pg | MCHC (9 h): 32.9% | MCV (9 h): 64.9 fL | Mono (9 h): 2.8% | Neu (9 h): 20.6% | PT (9 h): 15.5 s | Plat (9 h): 102.9 x10_4/uL | RBC (9 h): 598 x10_4/ul | Ret (9 h): 9.2% | WBC (9 h): 79 x10_2/uL | KIDNEY_L (9 h): 0.8 g | KIDNEY_R (9 h): 0.9 g | KIDNEY_TOTAL (9 h): 1.7 g | LIVER (9 h): 7.5 g | A/G (9 h): 1.2 | ALP (9 h): 1634.6 IU/L | ALT (9 h): 35.4 IU/L | AST (9 h): 77 IU/L | BUN (9 h): 11.4 mg/dL | CRE (9 h): 0.1 mg/dL | Ca (9 h): 10.5 mg/dL | Cl (9 h): 106 meq/L | DBIL (9 h): 0.002 mg/dL | GLC (9 h): 190 mg/dL | IP (9 h): 9.4 mg/dL | K (9 h): 4.5 meq/L | LDH (9 h): 231.8 IU/L | Na (9 h): 140.8 meq/L | PL (9 h): 140.2 mg/dL | RALB (9 h): 2.9 g/dL | TBIL (9 h): 0.01 mg/dL | TC (9 h): 85.8 mg/dL | TG (9 h): 37.2 mg/dL | TP (9 h): 5.4 g/dL | gamma-GTP (9 h): 1.2 IU/L | TERMINAL_BW (24 h): 199.8 g | APTT (24 h): 19.8 s | Bas (24 h): 0% | Eos (24 h): 0.8% | Fbg (24 h): 345.2 mg/dL | Hb (24 h): 13 g/dL | Ht (24 h): 38.7% | Lym (24 h): 86% | MCH (24 h): 21.7 pg | MCHC (24 h): 33.6% | MCV (24 h): 64.6 fL | Mono (24 h): 1.8% | Neu (24 h): 10.4% | PT (24 h): 15 s | Plat (24 h): 125.5 x10_4/uL | RBC (24 h): 599 x10_4/ul | Ret (24 h): 7.7% | WBC (24 h): 68.5 x10_2/uL | KIDNEY_L (24 h): 0.9 g | KIDNEY_R (24 h): 0.9 g | KIDNEY_TOTAL (24 h): 1.8 g | LIVER (24 h): 9.1 g | A/G (24 h): 1.2 | ALP (24 h): 1513.8 IU/L | ALT (24 h): 44.2 IU/L | AST (24 h): 73.6 IU/L | BUN (24 h): 15.4 mg/dL | CRE (24 h): 0.1 mg/dL | Ca (24 h): 11.1 mg/dL | Cl (24 h): 105.2 meq/L | DBIL (24 h): 0 mg/dL | GLC (24 h): 190.8 mg/dL | IP (24 h): 7.6 mg/dL | K (24 h): 4.2 meq/L | LDH (24 h): 210.4 IU/L | Na (24 h): 142 meq/L | PL (24 h): 161.2 mg/dL | RALB (24 h): 3.1 g/dL | TBIL (24 h): 0.014 mg/dL | TC (24 h): 102.6 mg/dL | TG (24 h): 39.4 mg/dL | TP (24 h): 5.7 g/dL | gamma-GTP (24 h): 1.4 IU/L
